The text below walks through data of PubChem BioAssay (NCI).

Experiment in all cases: DTP human tumour cell line panel, 48 h
The subject of assay [1] is NCI-H23 lung.
In assay [2] the test system is OVCAR-3 ovarian.
In assay [3] the test system is NCI-H226 lung.
The test system of assay [4] is RXF 393 renal.
Assay [5] concerns HT29 colon.
Assay [6] relates to IGROV1 ovarian.
Assay [7] deals with MDA-MB-231 breast.
The test system of assay [8] is ACHN renal.
Assay [9] relates to SF-295 CNS.
Assay [10] deals with TK-10 renal.
In assay [11] the test system is BT-549 breast.
The subject of assay [12] is OVCAR-5 ovarian.
Assay [13] relates to NCI-H460 lung.

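All cell lines were grown in 96-well plates and treated with compound for 48 hours. TGI is the concentration that stops growth completely.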

On to `CCN1CCC(O)(c2ccc(Oc3ccc(F)cc3)cc2)C(C(=O)c2ccc(Oc3ccc(F)cc3)cc2)C1` (centres undefined), for which the TGI (commonly the concentration at which net growth stops) in assay [1] came out at 28 µM; in [2] it was 28.6 µM; in assay [3], 29.5 µM; in assay [4] it was 25.8 µM; in [5], 23.6 µM; in [6] it was 24.1 µM. Also, the total growth inhibition concentration (TGI) was found to be 26.6 µM in assay [7]; 26.8 µM in assay [8]; 29.3 µM in assay [9]; 23.5 µM in assay [10]; 29.1 µM in [11]; 28.5 µM in [12].

On to `CS(=O)(=O)c1nc(-c2cc3c(c(S(C)(=O)=O)n2)CCCC3)cc2c1CCCCC2`, for which the total growth inhibition concentration (TGI) in [1] is above 100 µM; in assay [2] it was above 100 µM; in [3], above 100 µM; in assay [4], above 100 µM; in assay [5], above 100 µM; in [6], 54.3 µM. The concentration for total growth inhibition (TGI) in assay [7], in assay [8], in assay [9], in assay [10], in assay [11] and in [12] was above 100 µM each time.

Turning to `COC(CN(C(C)=O)C1CCC2(SCCS2)c2[nH]c3ccccc3c21)OC` (centres undefined), the TGI in assay [1], in [2], in assay [3], in assay [4], in assay [5] and in assay [6] was above 100 µM each time. Also, the TGI in assay [7], in assay [8], in assay [10], in assay [11], in assay [13] and in [12] was above 100 µM each time.

As to `O=S(=O)(O)c1cc(N=Nc2c(O)ccc3ccccc23)ccc1/C=C/c1ccc(N=Nc2c(O)ccc3ccccc23)cc1S(=O)(=O)O`, the TGI in assay [1], in assay [2], in [3], in assay [4], in assay [5] and in assay [6] was above 100 µM each time. Also, the concentration for total growth inhibition (TGI) in assay [7], in [8], in assay [9], in assay [10], in assay [11] and in [12] was above 100 µM in each case.

Regarding `CSc1ccc(-c2cc(-c3nc4ccccc4[nH]3)no2)cc1`, the TGI was 66 µM in [1]; 55.7 µM in assay [2]; above 100 µM in assay [3]; 62.1 µM in [5]; above 100 µM in assay [6]; above 100 µM in assay [7]. Also, the TGI in [8] is above 100 µM; in [9], above 100 µM; in assay [10], above 100 µM; in assay [11], 55.5 µM; in [13], 45.7 µM; in assay [12], above 100 µM.

For the molecule `Cn1c2ccccc2c2c3c(c4c5ccccc5n(C)c4c21)C(=O)NC3=O`, the TGI is above 100 µM in assay [1]; above 100 µM in assay [3]; above 22.1 µM in [4]; above 100 µM in [5]; above 71.8 µM in [6]; above 52.7 µM in [7]. The total growth inhibition concentration (TGI) in assay [9] is above 76.5 µM; in assay [10] it was above 100 µM; in [11], above 100 µM; in assay [13] it was 70.1 µM; in assay [12], above 100 µM.

As to `COc1c(/C=C/C(C)(C)O)cc(C2CC(=O)c3c(O)cc(O)cc3O2)cc1CC=C(C)C` (centres undefined), the total growth inhibition concentration (TGI) in [1] is 18.3 µM; in assay [3], 17.8 µM; in assay [4], 15.3 µM; in assay [5] it was 16.7 µM; in assay [7], 15.1 µM; in assay [8], 14.3 µM. In addition, the TGI in assay [9] was 14.8 µM; in assay [10] it was 15.8 µM; in assay [11], 15.8 µM; in assay [13] it was 16.5 µM; in assay [12], 16.5 µM.

For `CN(C(=O)Cc1ccccc1)n1cnn(CC(=O)OC(C)(C)C)c1=S`, the concentration for total growth inhibition (TGI) in assay [1], in assay [2], in assay [5], in assay [6], in [7] and in assay [8] was above 10 µM each time. Further, the TGI in [9], in [10], in [11], in assay [13] and in [12] was above 10 µM in each case.

Regarding `OC1(c2ccc(-c3ccccc3)cc2)c2ccccc2C2=NCCN21` (centres undefined), the TGI in assay [1] was 52.6 µM; in [2], 63.6 µM; in [3], 62 µM; in [5] it was 50.3 µM; in assay [7], above 100 µM; in assay [8] it was 43.9 µM. The total growth inhibition concentration (TGI) in assay [9], in assay [10], in [11] and in assay [13] was above 100 µM throughout.

For the molecule `O=C1/C(=C\c2cccc(Oc3ccccc3)c2)SC(c2ccccc2)N1c1ccccc1` (centres undefined), the concentration for total growth inhibition (TGI) in assay [1], in [2], in assay [3], in assay [4], in assay [5] and in assay [7] was above 100 µM each time. Also, the TGI in assay [8], in assay [9], in assay [10], in assay [11], in [13] and in assay [12] was above 100 µM each time.

As for `Clc1ccc(C2=NN=C3C(c4ccccc4)=Nc4ccccc4N3C2)cc1`, the TGI was above 100 µM in [1]; above 20.1 µM in [2]; above 100 µM in [3]; above 46.2 µM in assay [4]; above 25.8 µM in assay [5]; above 100 µM in [6]. The total growth inhibition concentration (TGI) in assay [7] is above 100 µM; in assay [8], above 100 µM; in assay [9] it was above 100 µM; in [10], above 50.2 µM; in [11] it was above 100 µM; in [12], above 30.6 µM.

In the case of `O=C(O)C(O)C(O)C(=O)O` (centres undefined), the concentration for total growth inhibition (TGI) in assay [2], in assay [3], in [4], in [5], in [6] and in assay [7] was above 100 µM in each case. Moreover, the concentration for total growth inhibition (TGI) in [8], in [9], in [10], in assay [11], in assay [13] and in assay [12] was above 100 µM throughout.

For the molecule `COc1ccc(-n2[nH]nc(C(N)=O)c2=O)cc1`, the TGI in assay [1] is above 100 µM; in assay [2], 13.8 µM; in assay [3], above 100 µM; in [4], above 100 µM; in assay [5], above 100 µM; in [6], above 100 µM. Also, the TGI in assay [7], in assay [8], in assay [9], in assay [11], in assay [13] and in assay [12] was above 100 µM throughout.

For the molecule `COC(=O)CCC1=C(CC(=O)OC)C(C)(OC)N=C1NC(=O)OCc1ccccc1` (centres undefined), the concentration for total growth inhibition (TGI) in [1], in assay [3], in assay [4], in assay [5], in assay [6] and in assay [7] was above 100 µM throughout. Also, the TGI in assay [8], in [9], in [10], in [11], in [13] and in assay [12] was above 100 µM throughout.

`Cc1cnc2sn(-c3ccc([N+](=O)[O-])cc3)c(=O)c2c1`: the total growth inhibition concentration (TGI) in assay [1], in assay [2], in assay [3], in [5], in [6] and in [7] was above 100 µM in each case. Further, the TGI in assay [8], in assay [9], in [10], in assay [11], in assay [13] and in assay [12] was above 100 µM throughout.

As for `CN1CN(c2ccccc2)C2(CCN(CC(C)(c3ccc(F)cc3)C3OCCCO3)CC2)C1=O` (centres undefined), the TGI in assay [1] turned out to be 32.9 µM; in assay [2], 24.5 µM; in assay [3], 42.7 µM; in assay [4] it was 39.5 µM; in assay [5], 27.3 µM; in assay [6], 38.9 µM. Further, the total growth inhibition concentration (TGI) in [7] came out at 60.8 µM; in assay [8], 49.2 µM; in assay [9], 33.4 µM; in assay [10], 31.9 µM; in assay [11] it was 19.2 µM; in assay [12] it was 25.7 µM.

As for `O=C1c2cc(Cl)ccc2NC(=NC2CCCC2)C2CSCN12` (centres undefined), the TGI in [2], in [3], in [4], in [5], in assay [6] and in assay [7] was above 100 µM each time. The TGI in [8], in assay [9], in assay [10], in assay [11], in assay [13] and in assay [12] was above 100 µM each time.

Regarding `c1ccc(C(NCC2CCO2)(c2ccccc2)c2ccccc2)cc1` (centres undefined), the TGI in [1] was found to be 30.9 µM; in [2] it was 34.5 µM; in [3], 26.6 µM; in assay [4], 35 µM; in assay [6], 32.7 µM; in assay [7], 70.1 µM. The concentration for total growth inhibition (TGI) in assay [8] came out at 29 µM; in [9], 28.9 µM; in [10], 28.4 µM; in assay [11], 38.7 µM; in assay [13], 33.9 µM; in [12], 30.5 µM.

As to `O=C1c2ccccc2C(=O)c2cc(N=Nc3c(O)ccc4ccccc34)ccc21`, the TGI in assay [1], in assay [2], in assay [3], in assay [4], in assay [5] and in assay [6] was above 100 µM in each case. Also, the total growth inhibition concentration (TGI) in assay [7], in assay [8], in assay [9], in assay [10], in [11] and in assay [12] was above 100 µM in each case.

`Cc1nc(C)c(N2CCN(S(=O)(=O)N(Cc3ccccc3)Cc3ccccc3)CC2)c(=O)[nH]1`: the TGI in assay [1] is 56.5 µM; in assay [2], above 100 µM; in [4] it was 38 µM; in [5] it was above 100 µM; in assay [6], above 100 µM; in [7] it was above 64.5 µM. Further, the TGI was above 73 µM in assay [8]; above 83.6 µM in [9]; above 72.9 µM in [10]; above 100 µM in assay [11]; above 100 µM in [13]; above 100 µM in [12].

For `COc1ccc2nc(-c3ccccc3)cc(OCC(=O)O)c2c1`, the TGI in [1], in [2], in assay [3], in [5], in assay [6] and in assay [7] was above 100 µM each time. Moreover, the TGI in assay [8], in assay [9], in assay [10], in [11], in [13] and in [12] was above 100 µM in each case.

Consider `c1cc2c(s1)-c1sccc1C21OCCO1`, for which the TGI in [1], in [2], in assay [3], in assay [5], in [7] and in assay [8] was above 100 µM each time. The TGI in assay [9], in assay [10], in assay [11], in [13] and in assay [12] was above 100 µM in each case.

As to `Cc1nc(CC#N)n[nH]1`, the total growth inhibition concentration (TGI) in [1], in assay [2], in assay [4], in assay [5], in [6] and in [7] was above 100 µM throughout. For the same molecule, the TGI in assay [8], in [9], in assay [10], in [11] and in assay [12] was above 100 µM in each case.
